Results on one molecule are retold here after US20240148749A1 (priority 2021, published 2024).

This test concerns CLP mice. Kind of test: Survival after cecal ligation and puncture (CLP) model of sepsis. It is filed as in vivo, mouse. Here is the method: A log-rank (Mantel-Cox) p value for trend was calculated.
We used peritonitis induced by CLP as a model of sepsis (Rittirsch et al., 2009). Briefly, animals were anesthetized with ketamine (Imalgene® 1000 100 mg/kg, Merial, France) and Xylazine (Rompun® 2% 20 mg/kg, Bayer, Germany) prior to surgery. After laparotomy, caecum was ligatured at the distal third with a 4.0 suture and the distal part was perforated twice with a 21 Gauge needle.
For use it is dissolved following the guidance provided by the manufacturer.
Clinical score was assessed 6, 12 and 24 hours and 21 days after CLP using a modified SmithKline Beecham, Harwell, Imperial College and Royal London Hospital phenotype assessment (SHIRPA) (Rogers et al., 1997) of the maximum score of fourteen. Weight, temperature and locomotor activity using an open field box were measured at the same time points. We determined survival rate twice a day for 21 days after CLP. The symptoms included in the a modified SmithKline Beecham, Harwell, Imperial College and Royal London Hospital phenotype assessment (SHIRPA) are tremors, periorbital exudates, piloerection, lethargy, vocalisation, positional passivity, no escapement to threat, long transfer arousal and diarrhoea. Each condition was scored from 0 to 2.
Experimental protocols were conducted in accordance with the French and European regulations on Animal Welfare and with Public Health Service recommendations. The experiments were performed on C57BL/6JRj mice (male and female) purchased from Janvier Laboratory. Mice were housed in cages in groups of 7, in a temperature (22±1.5° C.) and humidity-controlled environment, with a 12 h light/dark cycle. All animals used in the study were between 10 and 12 weeks old. Sample-size estimates for animal experiments were based on prior animal-modelling studies used in the Unit for the investigation of caecal ligation and puncture (CLP).
At the end, two groups were compared: CLP-Placebo, CLP-BMX-010. We determined survival rate twice a day for 4 days after CLP.”

For `CC[n+]1ccccc1-c1c2nc(c(-c3cccc[n+]3CC)c3ccc([nH]3)c(-c3cccc[n+]3CC)c3nc(c(-c4cccc[n+]4CC)c4ccc1[nH]4)C=C3)C=C2.[Mn+3]` [BMX-010, manganese(III) 5,10,15,20-tetrakis(N-ethylpyridinium-2-yl) porphyrin], the “survival of mice hours post-CLP (probability of survival over time) versus placebo” value (CLP experiment, FIG. 10) is “outperforms the placebo”. The “survival at 4 days post-CLP versus placebo” value (CLP mice, 2 mg/kg intra peritoneal every 12 hours during 48 hours (4 injections), N=12 mice C57BL6/group) was “more that doubles survival”.
